From article PMC6186272 (Stem Cells Translational Medicine, 2018)
pIC50: −log10 of the molar value.

How the values were obtained:
[1] = tested on: HES‐3 (NKX2–5eGFP/w reporter cell line); conditions: 5 μM, days 3–5, image analysis on day 13
ALK5 = target: T1, ALK5 (Homo sapiens, UniProt P36897); experiment: LanthaScreen Eu Kinase binding assay, ALK5; conditions: for pIC50: read-out: ALK5 IC50 ± SEM, mean ± SEM, triplicate
T1 sequence (P36897 34-503): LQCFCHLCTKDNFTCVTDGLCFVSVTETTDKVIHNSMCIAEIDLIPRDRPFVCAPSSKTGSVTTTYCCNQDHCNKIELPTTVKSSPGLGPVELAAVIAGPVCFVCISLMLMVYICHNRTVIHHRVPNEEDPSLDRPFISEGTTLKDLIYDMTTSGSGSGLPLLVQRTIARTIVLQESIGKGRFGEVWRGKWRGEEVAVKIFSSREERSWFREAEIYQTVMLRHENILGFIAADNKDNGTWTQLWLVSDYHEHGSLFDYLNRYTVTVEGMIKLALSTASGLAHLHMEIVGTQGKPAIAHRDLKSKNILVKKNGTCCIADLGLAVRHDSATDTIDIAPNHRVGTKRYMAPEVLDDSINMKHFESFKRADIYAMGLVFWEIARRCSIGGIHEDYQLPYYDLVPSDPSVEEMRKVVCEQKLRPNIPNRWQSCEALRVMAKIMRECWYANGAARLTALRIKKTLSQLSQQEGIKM

Wnt3a = experiment: Quantitative RT-PCR of Wnt3a expression during cardiac differentiation; assay type: cell-based, human; conditions: CHIR99021 6 μM day 0, 1.5 μM day 1; SB203580 and TA-01 5 μM
IMR‐90 cells = experiment: Monolayer cardiac differentiation, IMR-90 cells; assay type: cell-based, human; conditions: 5 μM (IWR-1: 2.5 μM), days 3–5, day 13
H1 cells = experiment: Monolayer cardiac differentiation, H1 cells; assay type: cell-based, human; conditions: days 3–5, day 13; for NKX2‐5/cTnT‐positive cells: H1, 5 μM (IWR-1: 2.5 μM); for Cardiac differentiation in H1 cells: 5 μM
[2] = Permeability test: mass retention to the artificial membrane; assay type: in vitro ADME
[3] = tested on: HES‐3 (NKX2‐5eGFP/w reporter cell line); assay type: cell-based, human; conditions: for Induction of cardiomyogenesis in HES-3 cells: 5 μM, days 3–5, day 13; for Percentage of NKX2‐5/GFP positive cells: HES-3, 5 μM (IWR-1: 2.5 μM), days 3–5, flow cytometry day 13, DMSO 14%
TGFBR2 [4] = target: T2, TGFBR2 (Homo sapiens, UniProt P37173); conditions: 1 μM compound
T2 sequence (P37173 23-567): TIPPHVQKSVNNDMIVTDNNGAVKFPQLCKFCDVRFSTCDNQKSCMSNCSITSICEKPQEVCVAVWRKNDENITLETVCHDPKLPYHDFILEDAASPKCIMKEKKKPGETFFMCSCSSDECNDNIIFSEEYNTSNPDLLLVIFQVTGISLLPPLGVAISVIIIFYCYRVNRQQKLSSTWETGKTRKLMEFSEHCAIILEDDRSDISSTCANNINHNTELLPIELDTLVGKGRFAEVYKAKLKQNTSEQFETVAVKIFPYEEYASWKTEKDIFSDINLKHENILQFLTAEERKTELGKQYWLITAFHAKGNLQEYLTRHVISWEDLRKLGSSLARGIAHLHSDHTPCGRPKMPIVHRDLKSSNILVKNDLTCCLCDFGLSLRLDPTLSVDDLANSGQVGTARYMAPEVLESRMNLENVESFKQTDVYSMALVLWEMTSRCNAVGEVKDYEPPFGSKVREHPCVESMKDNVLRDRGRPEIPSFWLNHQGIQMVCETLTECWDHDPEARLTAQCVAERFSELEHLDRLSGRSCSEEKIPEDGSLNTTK

hPSCs = conditions: for Cell proliferation during neural differentiation: 5 and 10 μM, days 1 to 9, cell count day 9
[5] = tested on: SMAD2 phosphorylation (TGFβ pathway); conditions: 5 μM, day 3, 30 minutes to 8 hours
[6] = tested on: SMAD/GFP reporter cell line (TGFβ pathway); conditions: 5 μM, then TGFβ3 2, 100, 1000 ng/ml
BMPR1B kinase = conditions: percentage of control; cited from earlier work
TGFBR2 [7] = target: T2, TGFBR2; conditions: cited from earlier work
[8] = tested on: NKX2‐5/GFP‐positive cells; conditions: added from days 4 to 8; cited from earlier work

COc1cc(O)c(-c2nc(-c3ccc(F)cc3)c(-c3ccncc3)[nH]2)c(OC)c1 [TI-25, 2-(4(5)-(4-Fluorophenyl)-5(4)-(pyridin-4-yl)-1H-imidazol-2-yl)-3,5-dimethoxyphenol]
NKX2-5/GFP expression of EBs compared with TA-01 [1]: higher GFP expression than the lead compound TA‐01

Fc1ccc(-c2nc(-c3c(F)cccc3I)[nH]c2-c2ccncc2)cc1 [TI-29, 4-(2-(2-Fluoro-6-iodophenyl)-4(5)-(4-fluorophenyl)-1H-imidazol-5(4)-yl)pyridine]
pIC50 (ALK5): 7.66

COc1ccccc1-c1nc(-c2ccc(F)cc2)c(-c2ccncc2)[nH]1 [TI-16, 4-(2-(2-Methoxyphenyl)-4(5)-(4-fluorophenyl)-1H-imidazol-5(4)-yl)pyridine]
NKX2-5/GFP expression of EBs compared with TA-01 [1]: higher GFP expression than the lead compound TA‐01

Fc1ccc(-c2nc(-c3ccc4ccccc4c3Br)[nH]c2-c2ccncc2)cc1 [TI-33, 4-(2-(1-Bromonaphthalen-2-yl)-4(5)-(4-fluorophenyl)-1H-imidazol-5(4)-yl)pyridine]
NKX2-5/GFP expression of EBs compared with TA-01 [1]: higher GFP expression than the lead compound TA‐01

COc1cccc(OC)c1-c1nc(-c2ccc(F)cc2)c(-c2ccncc2)[nH]1 [TI-18, 4-(2-(2,6-Dimethoxyphenyl)-4(5)-(4-fluorophenyl)-1H-imidazol-5(4)-yl)pyridine]
pIC50 (ALK5): 6.13

C[S+]([O-])c1ccc(-c2nc(-c3ccncc3)c(-c3ccc(F)cc3)[nH]2)cc1 (stereo not shown) [SB203580]
Suppression of Wnt3a expression on day 3 (Wnt3a): not observed

O=C(Nc1cccc2cccnc12)c1ccc(N2C(=O)[C@@H]3[C@H](C2=O)[C@@H]2C=C[C@H]3C2)cc1 [IWR-1]
Cardiac differentiation in IMR-90 cells (IMR‐90 cells): did not increase
NKX2‐5/cTnT‐positive cells (H1 cells): approximately 80%
Axin 1 and 2 expression (Wnt/β‐catenin pathway; 2.5 μM): upregulation

Fc1ccc(-c2nc(-c3c(F)cccc3Br)[nH]c2-c2ccncc2)cc1 [TI-21, 4-(2-(2-Bromo-6-fluorophenyl)-4(5)-(4-fluorophenyl)-1H-imidazol-5(4)-yl)pyridine]
pIC50 (ALK5): 7.96
NKX2-5/GFP expression of EBs compared with TA-01 [1]: higher GFP expression than the lead compound TA‐01

Fc1ccc(-c2nc(-c3ccc4ccccc4c3F)[nH]c2-c2ccncc2)cc1 [TI-42, 4-(2-(1-Fluoronaphthalen-2-yl)-4(5)-(4-fluorophenyl)-1H-imidazol-5(4)-yl)pyridine]
Permeability compared with IWR-1 and CHIR99021 [2]: less permeable

Cc1cccc(-c2[nH]ncc2-c2ccc3ncccc3n2)n1 [RepSox]
Induction of cardiomyogenesis in HES-3 cells [3]: failed to induce cardiomyogenesis
Cardiac differentiation in IMR-90 cells (IMR‐90 cells): promoted cardiac differentiation
Cardiac differentiation in H1 cells (H1 cells): promoted cardiac differentiation

Fc1ccc(-c2nc(C3CCCCC3)[nH]c2-c2ccncc2)cc1 [TI-34, 4-(2-Cyclohexyl-4(5)-(4-fluorophenyl)-1H-imidazol-5(4)-yl)pyridine]
Percentage inhibition of TGFBR2 at 1 μM (TGFBR2 [4]): 81%

CCOC(=O)C1=C(C)NC2=C(C(=O)CC(C)(C)C2)C1c1ccc(-c2ccccc2)cc1 (stereo not shown) [ITD‐1]
Percentage of NKX2‐5/GFP positive cells [3]: 25%
NKX2‐5/cTnT‐positive cells (H1 cells): ~ 40%
Cell proliferation during neural differentiation (hPSCs): inhibit cell proliferation

Fc1ccc(-c2c(-c3ccncc3)ncn2-c2ccccc2)cc1 [TI-38, 4-(5-(4-Fluorophenyl)-1-phenyl-1H-imidazol-4-yl)pyridine]
Cell proliferation during neural differentiation (hPSCs): inhibit cell proliferation

Cc1cccc(-c2[nH]ncc2-c2ccc(F)c(-c3cnn(CCO)c3)c2)n1 [Compound R268712]
Induction of cardiomyogenesis in HES-3 cells [3]: failed to induce cardiomyogenesis
Cardiac differentiation in IMR-90 cells (IMR‐90 cells): promoted cardiac differentiation
Cardiac differentiation in H1 cells (H1 cells): promoted cardiac differentiation

COc1cccc(F)c1-c1nc(-c2ccc(F)cc2)c(-c2ccncc2)[nH]1 [TI-20, 4-(2-(2-Fluoro-6-methoxyphenyl)-4(5)-(4-fluorophenyl)-1H-imidazol-5(4)-yl)pyridine]
NKX2-5/GFP expression of EBs compared with TA-01 [1]: higher GFP expression than the lead compound TA‐01

Cc1ccc2nc(NC(=O)CSc3nc4c(c(=O)n3-c3ccccc3)SCC4)sc2c1 [IWP-2, reference compound]
NKX2-5/GFP expression of EBs compared with TA-01 [1]: higher GFP expression than the lead compound TA‐01

Cc1cccc(C)c1-c1nc(-c2ccc(F)cc2)c(-c2ccncc2)[nH]1 [TI-27, 4-(2-(2,6-Dimethylphenyl)-4(5)-(4-fluorophenyl)-1H-imidazol-5(4)-yl)pyridine]
NKX2-5/GFP expression of EBs compared with TA-01 [1]: higher GFP expression than the lead compound TA‐01

Cc1c[nH]c(-c2cnc(NCCNc3ccc(C#N)cn3)nc2-c2ccc(Cl)cc2Cl)n1 [CHIR99021]
Suppression of Wnt3a expression on day 3 (Wnt3a): expression of Wnt3a was suppressed

Fc1ccc(-c2nc(-c3c(Cl)cccc3Cl)[nH]c2-c2ccncc2)cc1 [TI-15, 4-(2-(2,6-Dichlorophenyl)-4(5)-(4-fluorophenyl)-1H-imidazol-5(4)-yl)pyridine]
Potency in the inhibition of ALK5 relative to TA‐01 (ALK5; ratio of IC50 values): approximately 10 times
Permeability compared with IWR-1 and CHIR99021 [2]: less permeable
Cell proliferation during cardiac differentiation, dosing days 2–5 ([3]; days 2–5, data not shown): inhibition of cell proliferation
Cell growth during cardiac differentiation, dosing days 3–5 ([3]; days 3–5): does not inhibit cell growth
Percentage inhibition of TGFBR2 at 1 μM (TGFBR2 [4]): 80%
NKX2-5/GFP expression of EBs compared with TA-01 [1]: higher GFP expression than the lead compound TA‐01
β‐catenin phosphorylation on Ser552/675 and downstream TCF‐1/LEF‐1 expression (Wnt/β‐catenin pathway; 5 μM, day 3, 1, 4 and 8 hours after treatment): expression levels did not change
Phosphorylation of SMAD2 protein at Ser 465/467 [5]: significantly reduced
Numbers of GFP‐positive cells (nuclear SMAD/GFP reporter) [6]: reduced
Cell growth during neural differentiation at 2.5 μM (hPSCs; 2.5 μM, days 1 to 9): not at the concentration of 2.5 μM
Cell proliferation during neural differentiation (hPSCs): inhibit cell proliferation

Fc1ccc(-c2nc(-c3c(F)cccc3F)[nH]c2-c2ccncc2)cc1 [TA-01]
Permeability compared with IWR-1 and CHIR99021 [2]: less permeable
Percentage of NKX2‐5/GFP positive cells [3]: 30%–40%
Suppression of Wnt3a expression on day 3 (Wnt3a): not observed
Percentage inhibition of TGFBR2 at 1 μM (TGFBR2 [4]): 91%
BMPR1B binding, POC at 10 μM (BMPR1B kinase): 6.2
TGFBR2 binding, percentage of control at 10 μM (TGFBR2 [7]): 1.6
Increase in the percentage expression of NKX2‐5/GFP‐positive cells over DMSO [8]: threefold

Fc1ccc(Cl)cc1-c1nc(Nc2ccncc2)c2nccnc2n1 [SD208]
Induction of cardiomyogenesis in HES-3 cells [3]: failed to induce cardiomyogenesis
Cardiac differentiation in IMR-90 cells (IMR‐90 cells): promoted cardiac differentiation
Cardiac differentiation in H1 cells (H1 cells): promoted cardiac differentiation

O=[N+]([O-])c1ccccc1-c1nc(-c2ccc(F)cc2)c(-c2ccncc2)[nH]1 [TI-26, 4-(4(5)-(4-Fluorophenyl)-2-(2-nitrophenyl)-1H-imidazol-5(4)-yl)pyridine]
NKX2-5/GFP expression of EBs compared with TA-01 [1]: higher GFP expression than the lead compound TA‐01

Fc1ccc(-c2nc(-c3ccccc3)[nH]c2-c2ccncc2)cc1 [TI-14, 4-(4(5)-(4-Fluorophenyl)-2-phenyl-1H-imidazol-5(4)-yl)pyridine]
NKX2-5/GFP expression of EBs compared with TA-01 [1]: higher GFP expression than the lead compound TA‐01

O=[N+]([O-])c1cccc(Cl)c1-c1nc(-c2ccc(F)cc2)c(-c2ccncc2)[nH]1 [TI-24, 4-(2-(2-Chloro-6-nitrophenyl)-4(5)-(4-fluorophenyl)-1H-imidazol-5(4)-yl)pyridine]
pIC50 (ALK5): 7.88
NKX2-5/GFP expression of EBs compared with TA-01 [1]: higher GFP expression than the lead compound TA‐01
